Test results: US20220062299A1, “USE OF GLUCOCORTICOID STEROIDS IN PREVENTING AND TREATING CONDITIONS OF MUSCLE WASTING, AGING AND METABOLIC DISORDER” (NORTHWESTERN UNIVERSITY, priority 2018, published 2022)

Key:
[1] = test system: Duchenne muscular dystrophy boys; design: dose or concentration left out as unconfirmed; settings: cited from earlier work
[2] = test system: mdx; Dysf-null; Sgcg-null mice; assay: Once-weekly glucocorticoids in three murine models of muscle disease; assay type: in vivo, mouse; settings: 1 mg/kg once-weekly, contrary to daily dosing
Source text: Glucocorticoid steroids are widely prescribed drugs for chronic inflammatory conditions, and their daily intake generally correlates with muscle wasting and weakness, osteoporosis, obesity and metabolic disorders. […] (Quattrocelli et al, J Clin Invest 2017; Quattrocelli et al, Am J Pathol 2017; Quattrocelli et al., JCI Insight. 2019 Dec. 19; 4(24). pii: 132402. doi: 10.1172/jci.insight.132402).

| SMILES | muscle disease progression [1] | muscle force and mass [2] |
| --- | --- | --- |
| CC/C=C\C/C=C\C/C=C\C/C=C\C/C=C\C/C=C\CCC(=O)NCCNC(=O)c1ccccc1O [Edasalonexent] | delayed |  |
| CC(=O)OCC(=O)[C@@]12N=C(C)O[C@@H]1C[C@H]1[C@@H]3CCC4=CC(=O)C=C[C@]4(C)[C@H]3[C@@H](O)C[C@@]12C [deflazacort] |  | improved |
